Measurements: paper PMC11455950, “Effects of SZV-2649, a new multiple ion channel inhibitor mexiletine analogue” (Scientific Reports, 2024)
Where “and” joins values, the source holds several entries; their conditions need not be identical. Equal entries are not always repeated.

Tests used:
anesthetized dogs = assay: Atrial fibrillation induced by carbachol infusion and burst stimulation in anesthetized dogs; format: in vivo, dog; parameters: key to AF converted to SR? / AF reinduced?: N, response not observed; Y, response observed
Experimental: The effect of SZV-2649 was further investigated in carbachol-infused and programmed electrical stimulation-induced (i.e. 800/min atrial burst stimulation) acute atrial fibillation model in anesthetized dogs.
In the atrial fibrillation experiments, at least 5–6 dogs for control and test groups, (respectively) were used. Following 0.5 µg/kg sufentanyl premedication and […] i.v. pentobarbital anaesthesia induction, left thoracotomy was performed on all animals. Dogs were endotracheally intubated and mechanically ventilated (UGO Basile respirator; Biological Research Apparatus, Italy) Physiological parameters (non-invasive blood pressure, SpO2, ECG) were continuously monitored during surgery and experiments (InnoCare-VET Patient Care Monitor; Budapest, Hungary). The ECGs were recorded using precordial leads and were digitized and stored on a computer for off-line analysis using National Instruments data acquisition hardware (National Instruments, Austin, Texas, USA) and SPEL Advanced Haemosys software (version 3.2, MDE Heidelberg GmbH, Germany). Under pentobarbital anaesthesia, two pacemaker electrodes (Biotronik Solia S 60; Biotronik Ltd., Hungary) were positioned epicardially into the left atrial appendage and apex of the left ventricle, respectively, and electrodes were connected to pacemakers (Effecta D; Biotronik Hungary Ltd., Hungary). Pacemakers were programmed in VVI mode using Biotronik IC: 4808 A-Renamic programmer to prevent the potentially bradycardic effect of carbachol leading to hemodynamic instability. Atrial and ventricular thresholds were measured before AF induction in all animals. Ventricular and atrial pacing were set to three times the measured threshold. AF inducibility were tested in both groups using a control set (25 times) of 10-second-long rapid atrial bursts (800 beats/min, at threefold threshold). Following 25 atrial burst stimuli, 2 × 2 µg/kg loading dose of intravenous carbachol was administered followed by an 8 µg/kg/h maintenance dose. Atrial fibrillation was induced using 10-second-long atrial burst stimuli in the presence of carbachol in both groups of dogs. […] In these experiments, we investigated whether AF was converted to SR by the test drug(s). All intravenous infusions were performed using a programmable infusion pump (Terufusion TE-3; Terumo Europe, Leuven, Belgium).

[1] = system: IKACh in dog atrial trabecular muscle preparations; assay: Action potential duration in carbachol-pretreated dog atrial trabecular muscle; conditions: 10 µM, after 1 µM carbachol for 10 min
Experimental: The possible effect of SZV-2649 on IKACh was investigated in dog atrial trabecular muscle preparations. Carbachol (1 µM) was added to the tissue bath for 10 min to activate IKACh. […] Application of 10 µM SZV-2649 prolonged APD substantially to a greater degree (100%) than could be expected by its effect on repolarization in the absence of carbachol (10%) as shown in Table 1; Fig. 5D.
Action potentials were recorded in cardiac ventricular trabeculae and papillary muscle preparations obtained from the right ventricles of Beagle dogs (10–15 kg) of either sex using the conventional microelectrode technique. Dogs were sacrificed by iv. sedation with xylazine (1 mg/kg), followed by i.v. administration of 50 mg/kg pentobarbital. After the cornea reflex disapeared the chest was opened, and the heart was rapidly removed. […]
Isolated papillary muscle or atrial trabecula and Purkinje fiber preparations were obtained and prepared from the right ventricle and were individually mounted in a tissue chamber with the volume of 50 ml. […] Transmembrane potentials were recorded using conventional glass microelectrodes, filled with 3 M KCl and having tip resistances of 5–20 MΩ, connected to the input of a high impedance electrometer (Experimetria, type 309, Budapest, Hungary) which was coupled to a dual beam oscilloscope. […]

[2] = i.v. 10 mg/kg, individual dogs, carbachol + burst, 10 mg/kg

CC(N)COc1c(I)cc(C#N)cc1I.Cl (centres unmarked) [SZV-2649, 4-(2-aminopropoxy)-3,5-diiodobenzonitrile hydrochloride]
AF converted to SR? (anesthetized dogs; i.v. 10 mg/kg, individual dogs, carbachol + burst): Y
AF converted to SR? (time printed in cell) (anesthetized dogs; [2]): 79 s and 175 s and 64 s and 286 s and 84 s and 194 s
AF reinduced (number of the 25 burst stimuli) (anesthetized dogs; [2]): 0/25 and 1/25 and 2/25
AF reinduced? (anesthetized dogs; [2]): N and Y (2×)
Atrial fibrillation reinduced, share of burst stimuli (anesthetized dogs; i.v. 10 mg/kg, whole group): 2%
Times atrial fibrillation was reinduced by the 25 burst stimuli delivered in each animal (anesthetized dogs; i.v. 10 mg/kg, whole group): 3 times
Experimental animals in which atrial fibrillation was converted to sinus rhythm (anesthetized dogs; intravenous bolus 10 mg/kg): 100%
Prolongation of APD in the presence of carbachol [1]: 100%
